{"source": "patent US7935335B2", "about": "“Strains belonging to the genus Paenibacillus and method of controlling plant disease by using these strains or culture thereof” (Kaken Pharmaceutical Co., Ltd., priority 2004, dated 2011)", "type_in_all_cases": "in vivo", "key": {"[1]": {"tested_on": "cucumber anthracnose fungus (Colletotrichum orbiculare)", "test": "Test Example 1: control effect of a culture of each strain on cucumber anthracnose", "settings": "cucumber first true leaf; 20 ppm", "experimental": "Each of plastic pots was filled with horticultural compost and sown with cucumber (cultivar: Suyo), followed by growing in a greenhouse for 20 days. The cotyledon of the cucumber young seedling having a developed first true leaf was coated with 0.1 mL of whole culture of each of strains BS-0048, BS-0074, BS-0105 and BS-0277 prepared by the method described in Production Example 1. After the pots were allowed to stand in a glass house at 25° C. for 3 days, the plants were inoculated with a suspension of cucumber anthracnose fungus conidia in distilled water (Colletotrichum orbiculare, 1×10^6 spores/ml) by spraying. The pots were allowed to stand in a dark moist chamber at 25° C. for 24 hours and then in a glass house at 25° C. for 7 days to cause the disease. Lesions in the first true leaf of each seedling were counted and the protective value was calculated from the number of the lesions by the following equation to make a comparison with respect to control effect. Protective value={1−(number of lesions on treated plot/number of lesions on untreated plot)}×100"}, "[2]": {"tested_on": "cucumber anthracnose fungus (Colletotrichum orbiculare)", "test": "Test Example 2: control effect of purified spores on cucumber anthracnose", "settings": "20 ppm", "source_text": "Each of plastic pots was filled with horticultural compost and sown with cucumber (cultivar: 15 Suyo), followed by growing in a greenhouse for 20 days. The cucumber young seedling having a developed second true leaf was subjected to foliage application treatment with a spore preparation sample of strain BS-0105 obtained by formulating the bacterium of the present invention produced by the method described in each of Production Examples 4, 5, 6 and 7, by the method described in Formulation Example 1, so that the proportion of cells might be 2×10^7 CFU/mL. After the pots were allowed to stand in a dark moist chamber at 25° C. for 24 hours and then in a glass house at 25° C. for 4 days, the plants were inoculated with a suspension of cucumber anthracnose fungus conidia in distilled water (Colletotrichum orbiculare, 1×10^6 spores/ml) by spraying. The pots were allowed to stand in a dark moist chamber at 25° C. for 24 hours and then in a glass house at 25° C. for 7 days to cause the disease. Lesions in each leaf were counted and the protective value was calculated from the number of the lesions by the following equation to make a comparison with respect to control effect. Protective value={1−(number of lesions on treated plot/number of lesions on untreated plot)}×100"}, "[3]": {"tested_on": "cucumber bacterial blight bacterium (Pseudomonas syringae pv. lachrymans)", "test": "Test Example 3: control effect of purified spores on cucumber bacterial blight", "settings": "cucumber second true leaf; 20 ppm"}}}
{"compound": "CSC(=O)c1cccc2nnsc12", "note": "[Acibenzolar-S-methyl, S-methyl 1,2,3-benzothiazole-7-carboxylate]", "values": [{"measurement": "Number of lesions", "setting": "[1]", "result": 5}, {"measurement": "Protective value", "setting": "[1]", "result": 96.7}, {"measurement": "First true leaf Number of lesions per leaf", "setting": "[2]", "result": 0}, {"measurement": "First true leaf Protective value", "setting": "[2]", "result": 100}, {"measurement": "Second true leaf Number of lesions per leaf", "setting": "[2]", "result": 5.5}, {"measurement": "Second true leaf Protective value", "setting": "[2]", "result": 99}, {"measurement": "Number of lesions per leaf", "setting": "[3]", "result": 0, "unit": "b"}, {"measurement": "Protective value", "setting": "[3]", "result": 100}]}
